Measurements published in ChEMBL document CHEMBL5291721, “A preclinical secondary pharmacology resource illuminates target-adverse drug reaction associations of marketed drugs” (Nat Commun, 2023).
Values joined by “and” are separate entries in the source; they are usually repeats but may differ in a detail not shown here. Identical values can stand only once.

Key:
[1] = target: Sodium channel protein type 5 subunit alpha (Homo sapiens, UniProt Q14524); type: functional, cell-based
[2] = target: Voltage-dependent L-type calcium channel subunit alpha-1C (Homo sapiens, UniProt Q13936); type: functional, cell-based
Chain of Voltage-dependent L-type calcium channel subunit alpha-1C (Q13936 whole entry): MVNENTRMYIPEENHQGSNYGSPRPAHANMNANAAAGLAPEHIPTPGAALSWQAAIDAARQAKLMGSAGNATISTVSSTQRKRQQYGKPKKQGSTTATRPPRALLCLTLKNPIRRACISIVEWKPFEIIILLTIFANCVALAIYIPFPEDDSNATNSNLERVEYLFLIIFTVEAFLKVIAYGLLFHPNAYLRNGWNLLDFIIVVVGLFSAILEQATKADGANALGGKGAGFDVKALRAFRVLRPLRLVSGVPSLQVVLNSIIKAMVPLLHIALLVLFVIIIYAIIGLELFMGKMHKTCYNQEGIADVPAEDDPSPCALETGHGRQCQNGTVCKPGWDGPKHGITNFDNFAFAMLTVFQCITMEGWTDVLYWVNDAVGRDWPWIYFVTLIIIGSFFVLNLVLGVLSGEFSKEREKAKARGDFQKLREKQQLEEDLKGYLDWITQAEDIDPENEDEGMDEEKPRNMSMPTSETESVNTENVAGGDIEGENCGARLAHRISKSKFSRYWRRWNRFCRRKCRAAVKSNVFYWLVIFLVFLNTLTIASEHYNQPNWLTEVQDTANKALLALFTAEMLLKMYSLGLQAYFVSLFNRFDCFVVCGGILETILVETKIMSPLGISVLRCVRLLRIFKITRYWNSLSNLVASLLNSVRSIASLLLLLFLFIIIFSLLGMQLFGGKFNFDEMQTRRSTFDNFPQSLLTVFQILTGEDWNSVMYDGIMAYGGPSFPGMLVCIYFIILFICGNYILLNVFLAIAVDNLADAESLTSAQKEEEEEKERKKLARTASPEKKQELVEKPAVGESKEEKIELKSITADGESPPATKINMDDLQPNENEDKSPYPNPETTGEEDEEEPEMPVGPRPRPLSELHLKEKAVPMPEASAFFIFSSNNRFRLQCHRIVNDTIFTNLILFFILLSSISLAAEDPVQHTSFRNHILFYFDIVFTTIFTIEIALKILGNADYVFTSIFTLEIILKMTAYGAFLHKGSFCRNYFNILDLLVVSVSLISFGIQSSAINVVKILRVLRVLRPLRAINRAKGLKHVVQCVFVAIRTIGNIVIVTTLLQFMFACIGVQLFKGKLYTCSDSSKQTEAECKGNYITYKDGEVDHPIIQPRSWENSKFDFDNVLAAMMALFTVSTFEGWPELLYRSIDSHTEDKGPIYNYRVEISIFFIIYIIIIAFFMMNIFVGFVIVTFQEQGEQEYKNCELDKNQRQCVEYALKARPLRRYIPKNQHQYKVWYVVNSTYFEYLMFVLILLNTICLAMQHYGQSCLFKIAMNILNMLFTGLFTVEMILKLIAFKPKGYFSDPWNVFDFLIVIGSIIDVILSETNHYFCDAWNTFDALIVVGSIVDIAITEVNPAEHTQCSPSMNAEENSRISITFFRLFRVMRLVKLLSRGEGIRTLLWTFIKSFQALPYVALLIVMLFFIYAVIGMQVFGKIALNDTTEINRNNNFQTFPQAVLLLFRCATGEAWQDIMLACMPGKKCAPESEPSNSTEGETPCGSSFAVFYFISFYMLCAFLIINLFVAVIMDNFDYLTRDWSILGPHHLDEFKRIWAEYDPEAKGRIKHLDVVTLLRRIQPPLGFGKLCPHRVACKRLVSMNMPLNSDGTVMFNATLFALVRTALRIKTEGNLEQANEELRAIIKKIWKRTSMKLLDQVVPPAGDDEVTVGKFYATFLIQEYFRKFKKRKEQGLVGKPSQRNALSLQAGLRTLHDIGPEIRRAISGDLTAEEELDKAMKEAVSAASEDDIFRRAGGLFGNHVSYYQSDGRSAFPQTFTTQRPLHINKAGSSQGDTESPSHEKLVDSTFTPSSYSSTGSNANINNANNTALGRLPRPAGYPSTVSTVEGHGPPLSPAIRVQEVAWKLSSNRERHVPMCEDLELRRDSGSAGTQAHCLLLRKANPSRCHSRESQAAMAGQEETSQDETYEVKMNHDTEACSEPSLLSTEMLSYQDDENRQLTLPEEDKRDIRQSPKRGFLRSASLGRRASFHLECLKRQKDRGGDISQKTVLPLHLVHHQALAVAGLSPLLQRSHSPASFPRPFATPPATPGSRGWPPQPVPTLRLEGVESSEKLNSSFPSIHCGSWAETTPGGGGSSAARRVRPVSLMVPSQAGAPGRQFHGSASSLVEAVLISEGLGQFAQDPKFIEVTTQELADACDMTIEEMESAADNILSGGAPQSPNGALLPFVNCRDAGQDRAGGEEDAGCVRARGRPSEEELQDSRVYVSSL

Androgen receptor [3] = target: T1, Androgen receptor (Rattus norvegicus, UniProt P15207); type: functional
T1 sequence (P15207 whole entry): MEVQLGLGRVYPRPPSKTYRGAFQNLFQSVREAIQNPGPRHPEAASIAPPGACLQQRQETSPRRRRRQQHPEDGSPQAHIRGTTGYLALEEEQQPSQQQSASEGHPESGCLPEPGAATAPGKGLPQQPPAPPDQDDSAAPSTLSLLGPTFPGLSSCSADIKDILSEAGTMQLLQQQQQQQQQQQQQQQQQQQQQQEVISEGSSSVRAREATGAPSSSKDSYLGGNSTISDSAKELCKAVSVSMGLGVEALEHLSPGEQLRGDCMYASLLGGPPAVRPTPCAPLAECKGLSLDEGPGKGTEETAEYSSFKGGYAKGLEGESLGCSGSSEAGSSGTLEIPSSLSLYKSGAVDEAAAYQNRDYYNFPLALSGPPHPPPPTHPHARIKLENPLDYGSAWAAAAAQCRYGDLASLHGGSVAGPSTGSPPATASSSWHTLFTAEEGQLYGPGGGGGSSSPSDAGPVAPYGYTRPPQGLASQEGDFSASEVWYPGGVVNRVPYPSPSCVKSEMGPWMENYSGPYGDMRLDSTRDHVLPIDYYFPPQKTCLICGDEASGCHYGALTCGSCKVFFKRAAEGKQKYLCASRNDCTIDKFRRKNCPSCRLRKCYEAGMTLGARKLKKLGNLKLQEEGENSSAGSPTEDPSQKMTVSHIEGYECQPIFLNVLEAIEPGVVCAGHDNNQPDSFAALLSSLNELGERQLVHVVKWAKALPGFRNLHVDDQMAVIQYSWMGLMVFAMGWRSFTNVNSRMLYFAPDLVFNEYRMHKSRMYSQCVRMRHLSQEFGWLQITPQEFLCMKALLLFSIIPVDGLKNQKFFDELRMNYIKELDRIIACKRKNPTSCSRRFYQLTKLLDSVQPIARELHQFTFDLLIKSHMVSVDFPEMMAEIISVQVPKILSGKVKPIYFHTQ

[4] = target: Synaptic vesicular amine transporter (Rattus norvegicus, UniProt Q01827); type: functional
Substance-P receptor = Substance-P receptor (Homo sapiens, UniProt P25103)
Chain of Substance-P receptor (P25103 whole entry): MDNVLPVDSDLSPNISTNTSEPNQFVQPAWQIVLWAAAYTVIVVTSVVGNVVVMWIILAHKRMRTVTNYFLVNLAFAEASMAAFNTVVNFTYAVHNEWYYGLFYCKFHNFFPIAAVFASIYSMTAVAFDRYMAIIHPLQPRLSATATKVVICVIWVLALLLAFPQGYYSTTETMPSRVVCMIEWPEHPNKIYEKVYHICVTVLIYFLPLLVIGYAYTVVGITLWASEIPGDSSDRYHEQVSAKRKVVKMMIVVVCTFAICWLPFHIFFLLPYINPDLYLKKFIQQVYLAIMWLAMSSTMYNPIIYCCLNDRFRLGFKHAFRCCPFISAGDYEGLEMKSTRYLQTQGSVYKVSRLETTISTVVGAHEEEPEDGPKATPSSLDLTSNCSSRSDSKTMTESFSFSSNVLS

[5] = target: Hydroxycarboxylic acid receptor 2 (Homo sapiens, UniProt Q8TDS4)
Chain of Hydroxycarboxylic acid receptor 2 (Q8TDS4 whole entry): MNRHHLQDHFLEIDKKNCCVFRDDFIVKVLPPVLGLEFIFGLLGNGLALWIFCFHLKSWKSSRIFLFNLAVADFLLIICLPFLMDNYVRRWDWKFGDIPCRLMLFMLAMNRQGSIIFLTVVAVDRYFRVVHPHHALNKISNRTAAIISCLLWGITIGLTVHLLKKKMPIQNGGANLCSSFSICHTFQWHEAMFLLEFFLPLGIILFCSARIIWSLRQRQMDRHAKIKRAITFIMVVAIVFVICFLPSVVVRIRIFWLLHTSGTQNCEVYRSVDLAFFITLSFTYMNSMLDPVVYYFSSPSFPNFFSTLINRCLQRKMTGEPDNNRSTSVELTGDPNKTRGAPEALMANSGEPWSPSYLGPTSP

[6] = target: 5-hydroxytryptamine receptor 5A (Homo sapiens, UniProt P47898)
[7] = target: T2, Peroxisome proliferator-activated receptor alpha (Homo sapiens, UniProt Q07869); type: functional
T2 sequence (Q07869 whole entry): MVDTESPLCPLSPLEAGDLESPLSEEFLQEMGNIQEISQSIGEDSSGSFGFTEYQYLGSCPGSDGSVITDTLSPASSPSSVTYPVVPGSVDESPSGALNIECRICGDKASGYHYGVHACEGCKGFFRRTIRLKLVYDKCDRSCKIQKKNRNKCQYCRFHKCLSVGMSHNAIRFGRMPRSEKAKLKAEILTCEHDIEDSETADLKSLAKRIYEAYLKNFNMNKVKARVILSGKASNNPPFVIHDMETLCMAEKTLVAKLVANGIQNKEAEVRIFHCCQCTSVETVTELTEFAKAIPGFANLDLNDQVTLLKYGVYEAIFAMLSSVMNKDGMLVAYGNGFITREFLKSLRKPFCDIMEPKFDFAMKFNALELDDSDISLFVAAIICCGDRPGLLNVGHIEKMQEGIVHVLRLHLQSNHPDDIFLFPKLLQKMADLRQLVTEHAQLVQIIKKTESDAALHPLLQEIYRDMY

[8] = target: T3, Muscarinic acetylcholine receptor M5 (Homo sapiens, UniProt P08912)
T3 sequence (P08912 whole entry): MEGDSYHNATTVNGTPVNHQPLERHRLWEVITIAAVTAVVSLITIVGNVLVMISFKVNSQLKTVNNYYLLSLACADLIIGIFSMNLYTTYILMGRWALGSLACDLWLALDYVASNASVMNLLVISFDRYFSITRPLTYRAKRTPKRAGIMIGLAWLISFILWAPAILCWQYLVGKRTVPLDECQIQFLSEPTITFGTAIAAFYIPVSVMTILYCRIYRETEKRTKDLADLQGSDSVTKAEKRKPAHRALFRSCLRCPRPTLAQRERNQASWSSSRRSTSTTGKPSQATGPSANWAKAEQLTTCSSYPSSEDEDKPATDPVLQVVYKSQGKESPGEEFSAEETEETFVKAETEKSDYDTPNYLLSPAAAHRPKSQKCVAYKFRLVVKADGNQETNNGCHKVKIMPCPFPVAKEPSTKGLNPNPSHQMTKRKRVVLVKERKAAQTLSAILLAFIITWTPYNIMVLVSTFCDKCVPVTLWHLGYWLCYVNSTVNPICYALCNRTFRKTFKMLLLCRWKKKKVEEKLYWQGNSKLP

Substance-K receptor = target: T4, Substance-K receptor (Homo sapiens, UniProt P21452)
T4 sequence (P21452 whole entry): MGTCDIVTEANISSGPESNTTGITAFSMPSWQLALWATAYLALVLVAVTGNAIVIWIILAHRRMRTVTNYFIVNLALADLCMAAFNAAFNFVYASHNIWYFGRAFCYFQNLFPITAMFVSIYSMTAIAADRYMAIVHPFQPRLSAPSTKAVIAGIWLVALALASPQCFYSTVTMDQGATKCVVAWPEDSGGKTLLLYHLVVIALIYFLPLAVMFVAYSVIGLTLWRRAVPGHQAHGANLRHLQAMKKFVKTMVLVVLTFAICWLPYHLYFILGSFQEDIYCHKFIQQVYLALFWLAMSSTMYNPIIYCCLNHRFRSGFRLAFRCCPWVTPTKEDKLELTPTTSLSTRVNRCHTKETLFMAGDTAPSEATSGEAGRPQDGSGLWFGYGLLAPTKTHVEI

Androgen receptor [9] = target: T1, Androgen receptor; type: functional; remark: listed apart in the source
D(1A) dopamine receptor = D(1A) dopamine receptor (Homo sapiens, UniProt P21728); type: functional, cell-based
[10] = target: Receptor tyrosine-protein kinase erbB-2 (Homo sapiens, UniProt P04626); type: functional
[11] = target: Vascular endothelial growth factor receptor 2 (Homo sapiens, UniProt P35968); type: functional
Note: assay procedure not described here.

Chain of Sodium channel protein type 5 subunit alpha (Q14524 whole entry): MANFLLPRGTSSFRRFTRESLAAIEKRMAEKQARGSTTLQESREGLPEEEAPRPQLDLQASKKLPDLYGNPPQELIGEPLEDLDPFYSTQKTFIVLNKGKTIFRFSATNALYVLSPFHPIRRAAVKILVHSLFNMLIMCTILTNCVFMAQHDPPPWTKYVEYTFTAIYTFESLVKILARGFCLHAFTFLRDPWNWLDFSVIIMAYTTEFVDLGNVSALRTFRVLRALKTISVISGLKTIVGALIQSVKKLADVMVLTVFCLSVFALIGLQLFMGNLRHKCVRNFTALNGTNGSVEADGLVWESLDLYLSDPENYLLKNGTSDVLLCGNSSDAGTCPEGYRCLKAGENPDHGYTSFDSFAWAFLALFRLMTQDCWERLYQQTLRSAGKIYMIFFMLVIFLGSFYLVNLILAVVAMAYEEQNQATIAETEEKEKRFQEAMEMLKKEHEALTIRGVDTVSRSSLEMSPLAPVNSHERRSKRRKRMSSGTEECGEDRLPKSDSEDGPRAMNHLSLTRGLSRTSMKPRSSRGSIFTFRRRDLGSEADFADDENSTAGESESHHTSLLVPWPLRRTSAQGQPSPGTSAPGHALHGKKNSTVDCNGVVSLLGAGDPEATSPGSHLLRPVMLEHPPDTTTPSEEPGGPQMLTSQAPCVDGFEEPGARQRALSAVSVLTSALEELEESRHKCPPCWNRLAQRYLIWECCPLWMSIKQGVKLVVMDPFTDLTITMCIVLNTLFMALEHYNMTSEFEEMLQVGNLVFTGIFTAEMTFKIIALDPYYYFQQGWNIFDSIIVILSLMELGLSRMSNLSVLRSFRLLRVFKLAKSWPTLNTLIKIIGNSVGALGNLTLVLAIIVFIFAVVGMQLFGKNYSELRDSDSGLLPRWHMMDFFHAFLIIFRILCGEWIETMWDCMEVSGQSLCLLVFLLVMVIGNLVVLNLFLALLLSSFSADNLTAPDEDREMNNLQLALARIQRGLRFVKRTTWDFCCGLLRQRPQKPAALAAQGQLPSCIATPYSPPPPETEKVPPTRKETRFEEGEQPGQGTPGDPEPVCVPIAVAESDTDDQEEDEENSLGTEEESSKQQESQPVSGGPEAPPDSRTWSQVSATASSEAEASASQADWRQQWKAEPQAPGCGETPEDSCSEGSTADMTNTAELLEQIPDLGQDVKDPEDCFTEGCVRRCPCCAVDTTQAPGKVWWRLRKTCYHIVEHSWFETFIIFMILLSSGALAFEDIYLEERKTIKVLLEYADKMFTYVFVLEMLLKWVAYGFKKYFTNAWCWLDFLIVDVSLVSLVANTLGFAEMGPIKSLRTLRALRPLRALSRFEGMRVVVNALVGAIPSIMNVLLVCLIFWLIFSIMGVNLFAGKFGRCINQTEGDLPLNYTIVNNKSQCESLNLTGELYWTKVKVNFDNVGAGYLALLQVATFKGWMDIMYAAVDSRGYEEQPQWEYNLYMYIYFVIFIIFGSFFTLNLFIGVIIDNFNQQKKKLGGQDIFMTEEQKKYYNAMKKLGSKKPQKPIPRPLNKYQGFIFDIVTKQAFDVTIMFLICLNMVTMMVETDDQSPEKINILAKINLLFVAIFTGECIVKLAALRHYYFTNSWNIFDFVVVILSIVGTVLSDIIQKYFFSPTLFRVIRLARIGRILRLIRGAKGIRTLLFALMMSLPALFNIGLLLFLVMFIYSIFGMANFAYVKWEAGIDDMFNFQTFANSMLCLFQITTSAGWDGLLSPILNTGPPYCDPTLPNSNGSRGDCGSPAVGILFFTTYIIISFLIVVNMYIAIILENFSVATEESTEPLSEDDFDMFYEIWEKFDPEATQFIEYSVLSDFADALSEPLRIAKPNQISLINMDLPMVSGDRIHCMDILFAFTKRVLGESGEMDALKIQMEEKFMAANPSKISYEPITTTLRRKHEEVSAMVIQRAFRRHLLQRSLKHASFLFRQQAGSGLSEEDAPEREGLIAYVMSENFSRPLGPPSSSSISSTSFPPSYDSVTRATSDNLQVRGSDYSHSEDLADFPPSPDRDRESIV

Question: What does the source list for CC(C)N(CCC(C(N)=O)(c1ccccc1)c1ccccn1)C(C)C (stereo not given) [DISOPYRAMIDE]?
Answer: AC50 [1]: > 50 µM; AC50 [2]: > 50 µM

Question: Which AC50 (Androgen receptor [3]) does the source give for CC(S)C(=O)NCC(=O)O (stereo not given) [TIOPRONIN] here?
Answer: > 30 µM

Question: For CC(C)(O)CNc1nc(Nc2ccnc(C(F)(F)F)c2)nc(-c2cccc(C(F)(F)F)n2)n1 [ENASIDENIB], which AC50 [4] is on record?
Answer: 1.8 µM

Question: For Nc1ccc(S(=O)(=O)Nc2nccs2)cc1 [SULFATHIAZOLE], which AC50 (Substance-P receptor) is on record?
Answer: > 10 µM

Question: And the AC50 [5]?
Answer: > 10 µM

Question: Which AC50 (Androgen receptor [3]) does the source give for CCN(CC)CCNC(=O)c1c(C)[nH]c(/C=C2\C(=O)Nc3ccc(F)cc32)c1C [SUNITINIB] here?
Answer: 5.9 µM

Question: What about the AC50 [6] of the same compound?
Answer: 10 µM

Question: What about the AC50 [7] of the same compound?
Answer: > 30 µM

Question: What about the AC50 [2] of the same compound?
Answer: > 50 µM

Question: Which AC50 [7] does the source give for CO[C@H]1/C=C/O[C@@]2(C)Oc3c(C)c(O)c4c(O)c(c(/C=N/N5CCN(C)CC5)c(O)c4c3C2=O)NC(=O)/C(C)=C\C=C\[C@H](C)[C@H](O)[C@@H](C)[C@@H](O)[C@@H](C)[C@H](OC(C)=O)[C@@H]1C [RIFAMPIN] here?
Answer: > 30 µM

Question: CC(C)Cc1ccc(C(C)C(=O)O)cc1 (stereo not given) [IBUPROFEN] was tested. Which AC50 (Substance-P receptor) did it give?
Answer: > 10 µM

Question: And the AC50 [7]?
Answer: > 30 µM

Question: And the AC50 [8]?
Answer: > 10 µM

Question: What does the source list for Cc1onc(-c2ccccc2)c1-c1ccc(S(N)(=O)=O)cc1 [VALDECOXIB]?
Answer: AC50 (Substance-P receptor): > 10 µM; AC50 [5]: > 10 µM; AC50 [6]: > 10 µM; AC50 [8]: > 10 µM; AC50 (Substance-K receptor): > 10 µM

Question: Which AC50 [1] does the source give for O=C1CCc2cc(OCCCCc3nnnn3C3CCCCC3)ccc2N1 [CILOSTAZOL] here?
Answer: > 50 µM

Question: What about the AC50 [2] of the same compound?
Answer: > 50 µM

Question: How did the AC50 (Substance-P receptor) turn out when C[C@H]1c2cccc(O)c2C(=O)C2=C(O)[C@]3(O)C(=O)C(C(N)=O)=C(O)[C@@H](N(C)C)[C@@H]3[C@@H](O)[C@@H]21 [DOXYCYCLINE] was run?
Answer: > 10 µM

Question: And the AC50 [5]?
Answer: > 10 µM

Question: Which AC50 (Substance-P receptor) does the source give for COc1ccccc1OCCNCC(O)COc1cccc2[nH]c3ccccc3c12 (stereo not given) [CARVEDILOL] here?
Answer: 0.481 µM

Question: What about the AC50 (Androgen receptor [3]) of the same compound?
Answer: > 30 µM

Question: And the AC50 (Androgen receptor [9])?
Answer: > 30 µM

Question: What about the AC50 [8] of the same compound?
Answer: > 10 µM

Question: How did the AC50 (Substance-P receptor) turn out when C=CC[C@@H]1/C=C(\C)C[C@H](C)C[C@H](OC)[C@H]2O[C@@](O)(C(=O)C(=O)N3CCCC[C@H]3C(=O)O[C@H](/C(C)=C/[C@@H]3CC[C@@H](O)[C@H](OC)C3)[C@H](C)[C@@H](O)CC1=O)[C@H](C)C[C@@H]2OC [TACROLIMUS ANHYDROUS] was run?
Answer: > 10 µM

Question: What about the AC50 [1] of the same compound?
Answer: 45 µM and > 30 µM

Question: And the AC50 (Androgen receptor [3])?
Answer: > 30 µM

Question: And the AC50 (D(1A) dopamine receptor)?
Answer: > 30 µM

Question: What about the AC50 [10] of the same compound?
Answer: > 30 µM

Question: And the AC50 [8]?
Answer: > 10 µM

Question: What about the AC50 [2] of the same compound?
Answer: > 50 µM

Question: And the AC50 [11]?
Answer: > 30 µM

Question: What does the source list for C[C@H](CCC(=O)O)[C@H]1CC[C@H]2[C@@H]3[C@@H](O)C[C@@H]4C[C@H](O)CC[C@]4(C)[C@H]3CC[C@]12C [URSODIOL]?
Answer: AC50 (D(1A) dopamine receptor): > 30 µM; AC50 [10]: > 30 µM; AC50 [11]: > 10 µM

Question: How did the AC50 (Androgen receptor [3]) turn out when C[C@@H](NCCCc1cccc(C(F)(F)F)c1)c1cccc2ccccc12 was run?
Answer: > 30 µM

Question: And the AC50 (Androgen receptor [9])?
Answer: > 30 µM
